Laboratory results: patent publication US5830863A, “Neurokinin A antagonists” (priority 1996, dated 1998)
Like-named read-outs stand apart in the source and are kept apart here. Residues, ends and D or L forms follow the SMILES beside them.

Key:
[1] = molecular target: T1, neurokinin A (NKA) receptor (NK-2) (Mesocricetus auratus, UniProt P51144); assay: displacement of I125 labeled NKA from hamster urinary bladder membranes; format: binding
T1 construct: displace I125 labeled NKA from hamster urinary bladder; from tissue; host or cells: hamster urinary bladder (membranes in A1, chopped tissue in A4)
T1 sequence (P51144 1-384): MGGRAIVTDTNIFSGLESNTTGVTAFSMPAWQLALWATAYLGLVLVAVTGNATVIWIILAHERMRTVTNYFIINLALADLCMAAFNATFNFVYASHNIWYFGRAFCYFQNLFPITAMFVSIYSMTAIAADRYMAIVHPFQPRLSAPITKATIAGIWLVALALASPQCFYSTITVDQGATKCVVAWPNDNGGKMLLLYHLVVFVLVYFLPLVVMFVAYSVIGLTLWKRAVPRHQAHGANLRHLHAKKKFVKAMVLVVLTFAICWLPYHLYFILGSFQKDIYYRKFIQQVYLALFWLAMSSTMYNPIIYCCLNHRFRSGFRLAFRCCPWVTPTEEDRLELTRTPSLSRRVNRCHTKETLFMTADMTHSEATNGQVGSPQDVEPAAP
Excerpt: The abscissa (x-axis) logarithmically indicates the concentration in nanomoles of agonist of antagonist of the neurokinin A (NKA) receptor. The ordinate (Y-axis) indicates the observed specific binding for each tested agonist or antagonist measured as a percentage of maximum specific binding.
Agonists tested were NKA and fragments of NKA consisting of the third to tenth (NKA(3-10)) amino acids and the fourth to tenth (NKA(4-10)) amino acids. Values are MEAN±S.E.M. of 6-12 experiments. IC50 values estimated graphically from 50% inhibition point.
Urinary bladders from several hamsters were pooled, minced, and homogenized in 50 mM TRIS-HCl (pH 7.4) containing 120 mM NaCl and 5 mM KCl at 4° C. and centrifuged at 48,000×g for 15 minutes. The pellet was resuspended for 30 minutes in 50 mM TRIS-HCl (pH 7.4) containing 10 mM EDTA and 300 mM KCl at 4° C. The suspension was centrifuged as above and the pellet was washed two times in plain 50 mM TRIS-HCl (pH 7.4) and centrifuged similarly. The tissue was then resuspended in incubation buffer and an aliquot (approximately 3-5 mg tissue) was added to each assay tube to commence the assay. The assay tubes contained incubation buffer consisting of 50 mM TRIS-HCl (pH 7.4), 0.02% BSA, 40 μg/ml bacitracin, 4 μg/ml chymostatin, 4 μg/ml leupeptin, 2 mM MnCl2, 0.1 nM ^125 iodohistidyl^1 -neurokinin A (Amersham Corp.), and concentrations of the title compounds or standards ranging from 0.03 nM to 100 μM. The assay was allowed to proceed to equilibrium for 120 min at room temperature. After this time, the contents of each tube was rapidly filtered over Whatman GF/B filters presoaked in 0.5% BSA and the filters were rapidly washed two times with ice-cold plain 50 mM TRIS-HCl (pH 7.4). Filter-bound radioactivity was quantitated in a gamma counter. Specific binding (maximum) was defined as the difference between binding in the presence and absence of 1 μM unlabeled neurokinin A. Competition of iodinated neurokinin A binding by test compounds or standards was expressed as a percentage of this maximum competition.
(§1) Values given indicate the concentration in nanomoles of antagonist to reach the IC50 of the neurokinin A (NKA) receptor. SKLKB82#3 represents a cloned NK-2 receptor cell line; the sample is prepared from the scraped cell pellet for assay as earlier described for the hamster urinary bladder preparations. NK-1 represents a substance P receptor preparation from rat salivary gland; receptors are prepared as earlier described for the hamster urinary bladder preparations. Blank spaces indicate compound has not been tested in that particular assay.

[2] = molecular target: T2, NK-1 (substance P receptor) (Rattus norvegicus, UniProt P14600); assay: NK-1 substance P receptor preparation from rat salivary gland, binding
T2 construct: substance P receptor preparation from rat salivary gland; from tissue; host or cells: rat salivary gland
T2 sequence (P14600 whole entry): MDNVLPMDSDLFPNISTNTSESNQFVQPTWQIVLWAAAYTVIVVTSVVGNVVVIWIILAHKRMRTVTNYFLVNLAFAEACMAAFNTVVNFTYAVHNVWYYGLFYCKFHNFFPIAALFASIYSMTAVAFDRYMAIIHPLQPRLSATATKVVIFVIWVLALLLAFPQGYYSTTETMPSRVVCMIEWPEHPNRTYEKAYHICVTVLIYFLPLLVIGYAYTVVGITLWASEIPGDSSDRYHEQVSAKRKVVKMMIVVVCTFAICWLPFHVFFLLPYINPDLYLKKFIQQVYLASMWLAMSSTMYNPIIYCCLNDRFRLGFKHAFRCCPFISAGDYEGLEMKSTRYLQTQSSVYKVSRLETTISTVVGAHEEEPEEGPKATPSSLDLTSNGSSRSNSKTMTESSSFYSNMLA
Description: as §1, with “preparations.” for “preparations. Blank spaces indicate compound has not been tested in that particular assay.”

[3] = molecular target: T3, cloned NK-2 receptor (SKLKB82#3 cell line) (Bos taurus, UniProt P05363); assay: I125 NKA binding to SKLKB82#3 cloned NK-2 receptor cell line
T3 construct: expressed in transfected cells; host or cells: SKLKB82#3 cell line (scraped cell pellet)
T3 sequence (P05363 1-384): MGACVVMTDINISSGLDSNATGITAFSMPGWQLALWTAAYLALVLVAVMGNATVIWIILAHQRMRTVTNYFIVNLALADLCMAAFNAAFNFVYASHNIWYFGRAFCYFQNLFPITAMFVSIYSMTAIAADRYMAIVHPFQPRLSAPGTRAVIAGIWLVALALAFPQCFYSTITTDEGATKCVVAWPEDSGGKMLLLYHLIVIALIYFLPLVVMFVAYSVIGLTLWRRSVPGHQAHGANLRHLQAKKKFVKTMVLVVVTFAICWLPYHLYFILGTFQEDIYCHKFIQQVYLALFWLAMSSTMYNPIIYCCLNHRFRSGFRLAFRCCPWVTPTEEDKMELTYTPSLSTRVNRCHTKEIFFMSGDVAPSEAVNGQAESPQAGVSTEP
Description: as §1, with “preparations.” for “preparations. Blank spaces indicate compound has not been tested in that particular assay.”

[4] = cloned NK-2 receptor cell line, scraped cell pellet, read-out: SKLKB82#3 IC50

SMILES	IC50 [1]	IC50 [2]	IC50 [3, 4]	IC50 [3]
CC(C)C[C@H](NC(=O)[C@H](CC(C)C)NC(=O)CNC(=O)[C@H](C(C)C)N(C)C[C@H](Cc1ccccc1)NC(=O)[C@H](CO)NC(=O)[C@@H](N)CC(=O)O)C(N)=O [MDL 29,678, Asp--Ser--Phe[.psi.(CH2 NCH3)]Val--Gly--Leu--Leu--NH2] (HELM PEPTIDE1{D.S.[CC(C)[C@@H](C(=O)[*:2])N(C)C[C@H](Cc1ccccc1)N[*:1]].G.L.L.[am]}$$$$V2.0)	> 10 µM			
CC(C)C[C@H](NC(=O)[C@H](CC(C)C)NC(=O)CNC[C@@H](NC(=O)[C@H](Cc1ccccc1)NC(=O)[C@H](CO)NC(=O)[C@@H](N)CC(=O)O)C(C)C)C(N)=O [MDL 29,882, Asp--Ser--Phe--Val[.psi.(CH2 NH)]Gly--Leu--Leu--NH2]	> 5 µM	> 100 µM		
CC(C)C[C@@H](CN[C@@H](Cc1ccccc1)C(N)=O)NC(=O)CNC(=O)[C@@H](NC(=O)[C@H](Cc1ccccc1)NC(=O)[C@H](CO)NC(=O)[C@@H](N)CC(=O)O)C(C)C [MDL 101,382, Asp--Ser--Phe--Val--Gly--Leu(.psi.(CH2 NH))Phe--NH2] (HELM PEPTIDE1{D.S.F.V.G.[CC(C)C[C@@H](CN[C@@H](Cc1ccccc1)C(N)=O)N[*:1]]}$$$$V2.0)	0.005 µM			0.2 µM
CC(C)C[C@H](NC(=O)[C@H](CC(C)C)N(C)CCNC(=O)[C@@H](NC(=O)[C@H](Cc1ccccc1)NC(=O)[C@H](CO)NC(=O)[C@@H](N)CC(=O)O)C(C)C)C(N)=O [MDL 102,369, Asp--Ser--Phe--Val--Gly[.psi.CH2 NCH3)]Leu--Leu--NH2] (HELM PEPTIDE1{D.S.F.V.[CC(C)C[C@@H](C(=O)[*:2])N(C)CCN[*:1]].L.[am]}$$$$V2.0)	> 10 µM			
CC(C)C[C@@H](CO)NC[C@H](CC(C)C)NC(=O)CNC(=O)[C@@H](NC(=O)[C@H](Cc1ccccc1)NC(=O)[C@H](CO)NC(=O)[C@@H](N)CC(=O)O)C(C)C [MDL 102,678, Asp--Ser--Phe--Val--Gly--Leu[.psi.(CH2 NH)]Leu--CH2 OH] (HELM PEPTIDE1{D.S.F.V.G.[CC(C)C[C@@H](CO)NC[C@H](CC(C)C)N[*:1]]}$$$$V2.0)	> 10 µM		> 10 µM	

The next lines start with results.

IC50 [1]	IC50 [2]	IC50 [3, 4]	SMILES	IC50 [3]
0.05 ± 0.005 µM	> 10 µM		CSCC[C@H](NC[C@H](CC(C)C)NC(=O)CNC(=O)[C@@H](NC(=O)[C@H](Cc1ccccc1)NC(=O)[C@H](CO)NC(=O)[C@@H](N)CC(=O)O)C(C)C)C(N)=O [MDL 29,646, Asp--Ser--Phe--Val--Gly--Leu(.psi.(CH2 NH))Met--NH2] (HELM PEPTIDE1{D.S.F.V.G.[CSCC[C@H](NC[C@H](CC(C)C)N[*:1])C(N)=O]}$$$$V2.0)	
> 5 µM			CC(C)C[C@H](NC(=O)[C@H](CC(C)C)NC(=O)CN(C)C[C@@H](NC(=O)[C@H](Cc1ccccc1)NC(=O)[C@H](CO)NC(=O)[C@@H](N)CC(=O)O)C(C)C)C(N)=O [MDL 29,712, Asp--Ser--Phe--Val[.psi.(CH2 NCH3)]Gly--Leu--Leu--NH2] (HELM PEPTIDE1{D.S.F.[CC(C)[C@@H](CN(C)CC(=O)[*:2])N[*:1]].L.L.[am]}$$$$V2.0)	
0.257 ± 0.03 µM		4.73 ± 0.393 µM	CCN(C[C@H](CC(C)C)NC(=O)CNC(=O)[C@@H](NC(=O)[C@H](Cc1ccccc1)NC(=O)[C@H](CO)NC(=O)[C@@H](N)CC(=O)O)C(C)C)[C@@H](CC(C)C)C(N)=O [MDL 29,716, Asp-Ser-Phe-Val-Gly-Leu(.PSI.(CH2 NCH2 CH3))Leu-NH2] (HELM PEPTIDE1{D.S.F.V.G.[CCN(C[C@H](CC(C)C)N[*:1])[C@@H](CC(C)C)C(N)=O]}$$$$V2.0)	
2 µM			CC(C)C[C@H](NC(=O)[C@H](CC(C)C)NC(=O)CNC(=O)[C@@H](NC(=O)[C@H](Cc1ccccc1)NC(=O)[C@H](CO)NCCCC(=O)O)C(C)C)C(N)=O [MDL 101,905, Suc[.psi.(CH2 NH)]Ser--Phe--Val--Gly--Leu--Leu--NH2] (HELM PEPTIDE1{[O=C(O)CCCN[C@@H](CO)C(=O)[*:2]].F.V.G.L.L.[am]}$$$$V2.0)	
0.019 ± 0.003 µM			CC(C)C[C@@H](CN[C@@H](CC(C)C)C(N)=O)NC(=O)CCNC(=O)[C@@H](NC(=O)[C@H](Cc1ccccc1)NC(=O)[C@H](CO)NC(=O)[C@@H](N)CC(=O)O)C(C)C [MDL 102,500, Asp-Ser-Phe-Val-β-Ala-Leu(.PSI.(CH2 NH))Leu-NH2] (HELM PEPTIDE1{D.S.F.V.[bAla].[CC(C)C[C@@H](CN[C@@H](CC(C)C)C(N)=O)N[*:1]]}$$$$V2.0)	
0.103 ± 0.013 µM			CCCN(C[C@H](CC(C)C)NC(=O)CNC(=O)[C@@H](NC(=O)[C@H](Cc1ccccc1)NC(=O)[C@H](CO)NC(=O)[C@@H](N)CC(=O)O)C(C)C)[C@@H](CC(C)C)C(N)=O [MDL 102,863, Asp-Ser-Phe-Val-Gly-Leu(.PSI.(CH2 N(CH2)2 CH3))Leu-NH2] (HELM PEPTIDE1{D.S.F.V.G.[CCCN(C[C@H](CC(C)C)N[*:1])[C@@H](CC(C)C)C(N)=O]}$$$$V2.0)	
